In the test the test system is Melanoderm (MatTek MEL-300-B) tissue, epidermal keratinocytes (NHEK) and melanocytes (NHM). Put plainly: Melanoderm system: quantification of light (alkali-soluble) and dark (alkali-insoluble) melanin. Conditions: for Total Melanin: Melanoderm tissue, agents in medium at Table 1 concentrations (Pycnogenol 10 μg/ml, Vit C 30 μg/ml, Vit E 1 μM, Vit B12 1 ng/ml, Vit A 15 ng/ml, cysteine 10 μg/ml, niacinamide 10 μg/ml), control 6.93; for Ratio of light melanin (μg/g)/dark melanin (μg/g) / Dark Melanin / Light Melanin / Dark Melanin, change relative to control / Light Melanin, change relative to control: Table 1 concentrations; for Ratio of light melanin (μg/g)/dark melanin (μg/g): control 0.14; for Dark Melanin: alkali-insoluble melanin, control 6.08; for Dark Melanin / Light Melanin: OD 340 nm; for Light Melanin: alkali-soluble melanin, control 0.85; for Dark Melanin, change relative to control: value in brackets under Dark Melanin; for Light Melanin, change relative to control: value in brackets under Light Melanin. The test is classed as cell-based, human. Here is the method:
In these examples, evaluation of the ability of various agents, individually and in combination, to influence levels of dark and light melanin was tested using the commercially available Melanoderm™ system.
The MelanoDerm™ MatTeks system consists of normal, human-derived epidermal keratinocytes (NHEK) and melanocytes (NHM) which have been cultured to form a multilayered, highly differentiated model of the human epidermis. The NHM within co-cultures undergo spontaneous melanogenesis leading to tissues of varying levels of pigmentation. The tissues are produced using serum free medium without artificial stimulators of melanogenesis such as TPA and IBMX. The cultures are grown on cell culture inserts at the air-liquid interface, allowing for simulated topical application of agents to be tested. Introduction of agents into the medium simulates systemic application.
On delivery, the melanoderms (MatTek MEL-300-B) were placed onto metal ring supports in a 6 well plate containing 5 ml of pre-warmed maintenance media (of EPI-100-MM-PRF), using aseptic technique as per MatTek's protocol. Incubation was carried out overnight at 37° C. and 4% CO2 to allow the melanoderms to recover and equilibrate fully. Once placed under these conditions the MEL-300 tissue, undergo melanogenesis and differentiation.
Treatment was initiated on the following morning. Agents to be tested were dissolved in appropriate solvents and added to warmed media at final concentrations pre-assessed for melanocyte toxicity. Each time the media was changed, the spent media was aspirated from the melanoderms and reserved for testing for toxicity (Lactate Dehydrogenase (Promega)) and Interleukin-1 release (R&D systems) and replaced with a fresh dose of media plus test agents whether within the media of the melanoderm. Melanoderms were returned to the incubator.
On observation of differences in darkening, microscopic and macroscopic darkening were recorded photographically. Harvesting the tissue of the melanoderm involved cutting away the tissue from its plastic support and was followed by quantification of melanin present post-treatment versus untreated.
Melanoderm samples were cut from the plastic holders and the wet weight of tissue measured. 200 μl 1M NaOH/8M urea was added to the melanoderm sample the tissue homogenised in a microfuge tube. Samples were whirlimixed at RT for 30 minutes on and off to release the soluble melanin. Samples were centrifuged at 13,000 rpm for 10 minutes and supernatant containing soluble melanin was removed to a fresh tube.
Protein was extracted from the supernatant by addition of 200 μl chloroform and then by mixing vigorously for 1 minute. Phases were separated by centrifugation at 13,000 rpm for 10 minutes. 150 μl of supernatant was added to a microtitre plate (in duplicate) and the OD 340 nm ascertained.
1M NaOH was added to the remaining pellet which contains the insoluble melanin and the sample vortexed for one minute. The sample was then incubated in a water bath at 37° C. for 96 hrs with daily mixing to released the insoluble melanin. The sample was centrifuged for 10 minutes at 13,000 rpm with 200 μl of chloroform and 190 μl of the supernatant taken to a fresh tube. The supernatant was centrifuged again and 150 μl removed to a microtitre plate for analysis of absorption at 340 nm.
Absolute melanin is calculated as the actual melanin quantity calculated from a previously determined light melanin standard curve: x=(y−0.003)/4.76423 (where x=concentration of melanin and y=optical density at 340 nm).

Consider `N[C@@H](CS)C(=O)O` [Cysteine], for which the “Total Melanin” value turned out to be 5.96 µg/g, the “Ratio of light melanin (μg/g)/dark melanin (μg/g)” value (“Ratio of light melanin” below) worked out at 0.13, the “Dark Melanin” value turned out to be 5.27 µg/g and the “Light Melanin” value amounted to 0.69 µg/g. Moreover, the “Dark Melanin, change relative to control” value is “(−13.3%)” and the “Light Melanin, change relative to control” value is “(−18.8%)”.

Consider Vitamin B12, for which the “Total Melanin” value came out at 7.93 µg/g, the “Ratio of light melanin” value stood at 0.19, the “Dark Melanin” value was found to be 6.66 µg/g and the “Light Melanin” value is 1.27 µg/g. Also, the “Dark Melanin, change relative to control” value is on record as “(+9.5%)” and the “Light Melanin, change relative to control” value is given as “(+49.4%)”.

Vitamin A: the “Total Melanin” value was 7.81 µg/g and the “Dark Melanin” value is 6.71 µg/g.

Take `NC(=O)c1cccnc1` [Niacinamide]: the “Total Melanin” value was found to be 8.10 µg/g, the “Ratio of light melanin” value turned out to be 0.13, the “Dark Melanin” value came out at 7.16 µg/g and the “Light Melanin” value is 0.94 µg/g. Moreover, the “Dark Melanin, change relative to control” value was “(+17.8%)” and the “Light Melanin, change relative to control” value is “(+10.6%)”.

These data come from US20080058281A1, “Skin Lightening Compositions Comprising Vitamines and Flavonoids” (priority 2004, published 2008).
